The record followed here is PubChem BioAssay AID212 (DTP/NCI, 2004).

The test system of the experiment is BDF1 mice, colon carcinoma 38 sc, T/C %. In words: NCI In Vivo Anticancer Drug Screen. Data for tumor model Colon Carcinoma 38 (subcutaneous) in B6D2F1 (BDF1) mice. The following applies: endpoint: median tumor weight (est.), schedule: Q07DX002 (ip), higher = larger tumour. The method, then: The antitumor activity of compounds was measured in mice bearing transplantable tumors. Survival or tumor size were measured and the results are expressed as the measurement made in the treated group (T) divided by the measurement made in the vehicle treated control group (C). The tumor model used in this assay is Colon Carcinoma 38 (subcutaneous) in B6D2F1 (BDF1) mice

[1] abbreviates: dose: 25.0 mg/kg/injection, vehicle: saline.
Setting [2] is: dose: 50.0 mg/kg/injection, vehicle: saline.
Setting [3] is: dose: 100.0 mg/kg/injection, vehicle: saline.
Where [4] appears, read: dose: 6.25 mg/kg/injection, vehicle: saline with Tween-80.
Where [5] appears, read: dose: 12.5 mg/kg/injection, vehicle: saline with Tween-80.
[6] abbreviates: dose: 25.0 mg/kg/injection, vehicle: saline with Tween-80.
Where [7] appears, read: dose: 50.0 mg/kg/injection, vehicle: saline with Tween-80.
The mark [8] stands for this setting: dose: 100.0 mg/kg/injection, vehicle: saline with Tween-80.
The mark [9] stands for this setting: dose: 200.0 mg/kg/injection, vehicle: saline with Tween-80.
[10] abbreviates: dose: 2.5 mg/kg/injection, vehicle: saline.
Setting [11] is: dose: 20.0 mg/kg/injection, vehicle: saline.
Where [12] appears, read: dose: 400.0 mg/kg/injection, vehicle: saline with Tween-80.
Where [13] appears, read: dose: 100.0 mg/kg/injection, vehicle: Klucel (hydroxypropylcellulose) (HPC).
Where [14] appears, read: dose: 200.0 mg/kg/injection, vehicle: Klucel (hydroxypropylcellulose) (HPC).
Setting [15] is: dose: 400.0 mg/kg/injection, vehicle: Klucel (hydroxypropylcellulose) (HPC).
Where [16] appears, read: dose: 10.0 mg/kg/injection, vehicle: saline.
Setting [17] is: dose: 7.5 mg/kg/injection, vehicle: Klucel (hydroxypropylcellulose) (HPC).
Where [18] appears, read: dose: 30.0 mg/kg/injection, vehicle: Klucel (hydroxypropylcellulose) (HPC).
Setting [19] is: dose: 60.0 mg/kg/injection, vehicle: Klucel (hydroxypropylcellulose) (HPC).
The mark [20] stands for this setting: dose: 25.0 mg/kg/injection, vehicle: Klucel (hydroxypropylcellulose) (HPC).
Setting [21] is: dose: 50.0 mg/kg/injection, vehicle: Klucel (hydroxypropylcellulose) (HPC).
Where [22] appears, read: dose: 800.0 mg/kg/injection, vehicle: saline.
The mark [23] stands for this setting: dose: 12.5 mg/kg/injection, vehicle: Klucel (hydroxypropylcellulose) (HPC).

Values joined by “and” are separate entries in the source; they are usually repeats but may differ in a detail not shown here. Equal values may be shown once. Results filed as inconclusive are left out.

As for `CC1(C)COCN1COCCOCN1COCC1(C)C`, the T/C runs as follows: (dose: 12.5 mg/kg/injection, vehicle: saline) 87 % of control; under setting [1], 109 % of control and 112 % of control; under setting [2], 80 % of control and 95 % of control; under setting [3], 81 % of control and 88 % of control.

As to `O=C1CC(C(=O)N2Cc3cc4ccccc4nc3C2)CO1` (stereo not drawn), the T/C reads like this: under setting [4], 72 % of control; under setting [5], 100 % of control; under setting [6], 101 % of control; under setting [7], 122 % of control; under setting [8], 124 % of control; under setting [9], 100 % of control.

As for `O=C(O)c1c2c(nc3ccccc13)Cc1ccccc1-2`, the T/C reads like this: (dose: 12.5 mg/kg/injection, vehicle: water) 121 % of control and 100 % of control; (dose: 100.0 mg/kg/injection, vehicle: water) 99 % of control; (dose: 200.0 mg/kg/injection, vehicle: water) 62 % of control.

On to `CC[n+]1c(-c2ccccc2)c2cc(N)ccc2c2ccc(N)cc21`, for which the T/C was 99 % of control under setting [10]; 118 % of control and 103 % of control under setting [11].

With `Nc1ccc2ccc(NS(=O)(=O)N3CCCCC3)cc2c1`, the T/C is 120 % of control under setting [8], 99 % of control under setting [9] and 124 % of control under setting [12].

`O=CN(SSN(C=O)C1CCCCC1)C1CCCCC1`: the T/C was 98 % of control and 99 % of control under setting [6]; 77 % of control and 78 % of control under setting [7]; 113 % of control and 98 % of control under setting [9].

Take `CCNC(=O)[B-][N+](C)(C)C`: the T/C was 116 % of control under setting [13]; 67 % of control under setting [14]; 113 % of control and 96 % of control under setting [15].

For `ClC1=C(Cl)C(Cl)=C(Cl)C1=Cc1ccccc1`, the T/C by setting is: (dose: 0.78 mg/kg/injection, vehicle: saline with Tween-80) 119 % of control; (dose: 1.56 mg/kg/injection, vehicle: saline with Tween-80) 95 % of control; under setting [4], 114 % of control; under setting [5], 114 % of control; under setting [6], 58 % of control.

Turning to `O=NN(CCCl)C(=O)NC1[C@H](O)CCC[C@@H]1O` (stereo partly drawn), the T/C (dose: 1.25 mg/kg/injection, vehicle: saline) was 68 % of control; the T/C under setting [10] is 53 % of control and 76 % of control; the T/C under setting [16] is 9 % of control and 26 % of control.

With `CC(=O)O[C@H]1C(=O)[C@@]2(C)[C@H]([C@H](OC(=O)c3ccccc3)[C@]3(O)C[C@H](OC(=O)[C@H](O)[C@@H](NC(=O)c4ccccc4)c4ccccc4)C(C)=C1C3(C)C)[C@]1(OC(C)=O)CO[C@@H]1C[C@@H]2O`, the T/C is 69 % of control under setting [17], 88 % of control under setting [18] and 106 % of control under setting [19].

`O=C1OCC2(C(=O)O)C(=O)OCC12` (stereo not drawn): the T/C runs as follows: (dose: 3.12 mg/kg/injection, vehicle: saline with Tween-80) 124 % of control; under setting [4], 87 % of control; under setting [6], 70 % of control and 86 % of control; under setting [7], 109 % of control; under setting [12], 158 % of control.

Turning to `CCC[CH2][Sn]1([CH2]CCC)[O]C2C(CO)OC(n3ccc(N)nc3=O)C2[O]1` (stereo not drawn), the T/C (dose: 1.56 mg/kg/injection, vehicle: Klucel (hydroxypropylcellulose) (HPC)) was 61 % of control and 72 % of control; the T/C under setting [20] is 91 % of control.

With `C1OC1C1CO1` (stereo not drawn), the T/C reads like this: under setting [16], 99 % of control and 107 % of control; under setting [11], 119 % of control and 120 % of control; (dose: 40.0 mg/kg/injection, vehicle: saline) 96 % of control.

Consider `CCC1OC(OC)C=CC1=O` (stereo not drawn), for which the T/C under setting [6] was 92 % of control, the T/C under setting [7] is 73 % of control and the T/C under setting [8] is 73 % of control.

For the molecule `NCCCC(N)(C(=O)O)C(F)F` (stereo not drawn), the T/C was 124 % of control (dose: 100.0 mg/kg/injection, vehicle: distilled water + alcohol); 107 % of control (dose: 200.0 mg/kg/injection, vehicle: distilled water + alcohol); 113 % of control and 124 % of control (dose: 400.0 mg/kg/injection, vehicle: distilled water + alcohol); 124 % of control (dose: 800.0 mg/kg/injection, vehicle: distilled water + alcohol); 123 % of control and 100 % of control (dose: 1600.0 mg/kg/injection, vehicle: distilled water + alcohol).

`CSc1cc(=O)n2c3ccccc3c3ccnc1c32`: the T/C runs as follows: (dose: 1.25 mg/kg/injection, vehicle: saline with Tween-80) 60 % of control; (dose: 2.5 mg/kg/injection, vehicle: saline with Tween-80) 57 % of control and 77 % of control.

Consider `CSc1cc(C)[o+]c(C)c1`, for which the T/C runs as follows: under setting [20], 117 % of control; under setting [21], 184 % of control; under setting [14], 108 % of control.

Turning to `O=C1OC(C(O)CO)C(O)=C1O` (stereo not drawn), the T/C was 43 % of control under setting [2]; 100 % of control under setting [3]; 83 % of control under setting [22]; 100 % of control (dose: 1600.0 mg/kg/injection, vehicle: saline).

Take `O=C(CC(=O)C(F)(F)F)c1csc2ccccc12`: the T/C under setting [23] was 110 % of control and 90 % of control; the T/C under setting [21] was 76 % of control; the T/C under setting [14] is 62 % of control.

For `C=C(OC1C(C)=C2C(C1OC(=O)CCCCCCC)C(C)(OC(C)=O)CC(OC(=O)CCC)C1(O)C2OC(=O)C1(C)O)/C(C)=C/C` (stereo not drawn), the T/C is, setting by setting: (dose: 0.21 mg/kg/injection, vehicle: Klucel (hydroxypropylcellulose) (HPC)) 35 % of control; (dose: 0.84 mg/kg/injection, vehicle: Klucel (hydroxypropylcellulose) (HPC)) 82 % of control and 86 % of control and 92 % of control.

Turning to `O=c1ncccn1[C@@H]1O[C@H](CO)[C@H](O)C1O` (stereo partly drawn), the T/C is, setting by setting: under setting [2], 61 % of control and 82 % of control; under setting [3], 65 % of control and 75 % of control; (dose: 200.0 mg/kg/injection, vehicle: saline) 66 % of control and 84 % of control; (dose: 400.0 mg/kg/injection, vehicle: saline) 62 % of control and 66 % of control; under setting [22], 67 % of control and 74 % of control.

As for `OC1CCCC2CCC[N-]C12.OC1CCCC2CCC[N-]C12.[Mn+2]` (stereo not drawn), the T/C by setting is: under setting [23], 76 % of control; under setting [21], 91 % of control; under setting [13], 63 % of control and 84 % of control; under setting [14], 86 % of control and 98 % of control; under setting [15], 69 % of control.

Regarding `Nc1ncnc2c1nnn2C1OC(CO)C(O)C1O` (stereo not drawn), under setting [15], the T/C was 45 % of control.

Regarding `CNC(=O)ON(C(C)=O)C(=O)NC`, the T/C runs as follows: under setting [1], 87 % of control and 106 % of control; under setting [3], 103 % of control.

Turning to `N#C[Se-].c1ccc([Te+](c2ccccc2)c2ccccc2)cc1`, the T/C is, setting by setting: (dose: 3.12 mg/kg/injection, vehicle: Klucel (hydroxypropylcellulose) (HPC)) 181 % of control; (dose: 6.25 mg/kg/injection, vehicle: Klucel (hydroxypropylcellulose) (HPC)) 80 % of control; under setting [23], 65 % of control; under setting [20], 186 % of control.

As for `C=C1C(=O)OC2CC1CCC1(C)OC1CCC(C)=CCCC2(C)O` (stereo not drawn), the T/C runs as follows: (dose: 3.75 mg/kg/injection, vehicle: Klucel (hydroxypropylcellulose) (HPC)) 155 % of control; under setting [17], 155 % of control; under setting [18], 99 % of control; under setting [19], 123 % of control.
